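Values below derive from 48-hour exposures of cells grown in 96-well plates, with endpoints linearly interpolated between the two concentrations bracketing the appropriate inhibition level. Abbreviation: GI50, concentration required for 50% inhibition of growth.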 Activity calls are given as the source filed them. No stated cut-off is given here; in the data, active = GI50 up to about 1.1 µM and inactive = higher.
How the values were obtained:
Assay in all cases: growth of human tumour cells (NCI), 48 h
[1] = system: IGROV-1
[2] = system: K562
[3] = system: UACC-257
[4] = system: UO-31
[5] = system: COLO 205
[6] = system: HT-29
[7] = system: UACC-62
[8] = system: NCI-H23
[9] = system: SW-620
[10] = system: OVCAR-5
[11] = system: SN12C
[12] = system: NCI-H226
[13] = system: SNB-75
[14] = system: U-251
[15] = system: KM12
[16] = system: HCC 2998
[17] = system: HCT-15
[18] = system: EKVX
[19] = system: MOLT-4
[20] = system: SF-268

SMILES	GI50 [1]	GI50 [2]	GI50 [3]	GI50 [4]	GI50 [5]	GI50 [6]	GI50 [7]	GI50 [8]	GI50 [9]	GI50 [10]	GI50 [11]	GI50 [12]	GI50 [13]	GI50 [14]	GI50 [15]	GI50 [16]	GI50 [17]	GI50 [18]	GI50 [19]	GI50 [20]
CC(=O)O[C@H]1CC[C@@]2(C)C(=CC[C@@H]3[C@@H]2CC[C@]2(C)C(=O)/C(=C\c4ccccc4)C[C@@H]32)C1	> 100 µM (inactive)	54.7 µM (inactive)	> 100 µM (inactive)	> 100 µM (inactive)	> 100 µM (inactive)	> 100 µM (inactive)	> 100 µM (inactive)	> 100 µM (inactive)	> 100 µM (inactive)	> 100 µM (inactive)	> 100 µM (inactive)	> 100 µM (inactive)	> 100 µM (inactive)	> 100 µM (inactive)	> 100 µM (inactive)	> 100 µM (inactive)	> 100 µM	> 100 µM (inactive)	37.8 µM (inactive)	> 100 µM (inactive)
O=C(NC(Cc1ccc(I)cc1)C(=O)O)c1ccc(Br)cc1 (stereo not given)	> 100 µM (inactive)	> 73.1 µM (inactive)	> 100 µM (inactive)	> 100 µM (inactive)	> 100 µM (inactive)	> 100 µM (inactive)	> 67.3 µM (inactive)	> 100 µM (inactive)	> 100 µM (inactive)	> 100 µM (inactive)	> 100 µM (inactive)	> 100 µM (inactive)	30.1 µM (inactive)	65.8 µM (inactive)	> 100 µM (inactive)	25.9 µM (inactive)	> 100 µM	17.2 µM (inactive)	> 72.9 µM (inactive)	> 100 µM (inactive)
Cn1c2n/c(=N\c3ccc(Cl)cc3)[n+]3ccc4ccccc4c3c-2c([O-])n1-c1ccccc1	> 100 µM (inactive)	> 100 µM (inactive)	> 100 µM (inactive)	> 100 µM (inactive)	> 100 µM (inactive)	> 100 µM (inactive)	> 100 µM (inactive)	> 100 µM (inactive)	> 100 µM (inactive)	> 100 µM (inactive)	> 100 µM (inactive)	> 100 µM (inactive)	> 100 µM (inactive)	> 100 µM (inactive)	42.9 µM (inactive)	> 100 µM (inactive)	> 100 µM	> 100 µM (inactive)	> 100 µM (inactive)	> 100 µM (inactive)
Clc1nc2c(N3CCCC3)nc(N3CCNCC3)nc2[nH]1	17.9 µM (inactive)	23.1 µM (inactive)	19.3 µM (inactive)	15.7 µM (inactive)	16.4 µM (inactive)	17.4 µM (inactive)	17.4 µM (inactive)	16.9 µM (inactive)	21.2 µM (inactive)	19.3 µM (inactive)	18.6 µM (inactive)	> 100 µM (inactive)	20.1 µM (inactive)	17.2 µM (inactive)	18.1 µM (inactive)	15.9 µM (inactive)	18.9 µM	17.3 µM (inactive)	20.9 µM (inactive)	19.2 µM (inactive)
CCOC(=O)C1Cc2c(cc3c4c(cccc24)N(C(C)=O)C3)N(C)C1 (stereo not given)	5.83 µM (inactive)	4.39 µM (inactive)	39 µM (inactive)	1.07 µM (active)	> 100 µM (inactive)	> 100 µM (inactive)	13.4 µM (inactive)	> 100 µM (inactive)	4.86 µM (inactive)	17.7 µM (inactive)	6.04 µM (inactive)	2.9 µM (inactive)	24.2 µM (inactive)	4.93 µM (inactive)	4.17 µM (inactive)	> 100 µM (inactive)	> 100 µM	9.59 µM (inactive)	4.02 µM (inactive)	5.86 µM (inactive)
Cc1cccc(C(O)c2cccnc2)c1O (stereo not given)	> 100 µM (inactive)	> 100 µM (inactive)	66.7 µM (inactive)	> 100 µM (inactive)	> 100 µM (inactive)	> 100 µM (inactive)	35.7 µM (inactive)	> 100 µM (inactive)	> 100 µM (inactive)	39.2 µM (inactive)	> 100 µM (inactive)	> 100 µM (inactive)	> 100 µM (inactive)	> 100 µM (inactive)	> 100 µM (inactive)	44.2 µM (inactive)	> 100 µM	> 100 µM (inactive)	> 100 µM (inactive)	> 100 µM (inactive)
O=C1Nc2ccccc2/C1=N/Nc1ccc([N+](=O)[O-])cc1[N+](=O)[O-]	7.94 µM (inactive)	32.4 µM (inactive)	8.49 µM (inactive)	13.2 µM (inactive)	14.5 µM (inactive)	19.1 µM (inactive)	20.3 µM (inactive)	12.4 µM (inactive)	> 100 µM (inactive)	12.6 µM (inactive)	11.3 µM (inactive)	12 µM (inactive)	18.7 µM (inactive)	8.87 µM (inactive)	13.6 µM (inactive)	11.6 µM (inactive)	13.8 µM	1.5 µM (inactive)	> 100 µM (inactive)	20.9 µM (inactive)
O=C1[C@@H]2C(c3c(Cl)cccc3Cl)=NO[C@@H]2C(=O)N1c1ccc(Cc2ccc(N3C(=O)[C@H]4C(c5c(Cl)cccc5Cl)=NO[C@H]4C3=O)cc2)cc1	> 100 µM (inactive)	> 100 µM (inactive)	> 100 µM (inactive)	90.6 µM (inactive)	> 100 µM (inactive)	> 100 µM (inactive)	> 100 µM (inactive)	> 100 µM (inactive)	> 100 µM (inactive)	> 100 µM (inactive)	> 100 µM (inactive)	> 100 µM (inactive)	> 100 µM (inactive)	> 100 µM (inactive)	> 100 µM (inactive)	> 100 µM (inactive)	> 100 µM	> 100 µM (inactive)	> 100 µM (inactive)	> 100 µM (inactive)
Nc1nnc2ccc(Cl)cc2[n+]1[O-]	31.8 µM (inactive)	21.8 µM (inactive)	94 µM (inactive)	> 100 µM (inactive)	24.4 µM (inactive)	42.4 µM (inactive)	49 µM (inactive)	30.1 µM (inactive)	36.5 µM (inactive)	> 100 µM (inactive)	> 100 µM (inactive)	> 100 µM (inactive)	> 100 µM (inactive)	> 100 µM (inactive)	> 100 µM (inactive)	40.8 µM (inactive)	36.2 µM	47.6 µM (inactive)	35.1 µM (inactive)	38 µM (inactive)
COc1cc(/N=N\c2ccc(OC)c(S(=O)(=O)O)c2)c(C)cc1/N=N\c1ccc(/C=C/c2ccc(/N=[N+](/[O-])c3ccc(/C=C/c4ccc(/N=N/c5cc(C)c(/N=N\c6ccc(OC)c(S(=O)(=O)O)c6)cc5OC)cc4S(=O)(=O)O)c(S(=O)(=O)O)c3)cc2S(=O)(=O)O)c(S(=O)(=O)O)c1	> 100 µM (inactive)	> 100 µM (inactive)	> 100 µM (inactive)	> 100 µM (inactive)	> 100 µM (inactive)	> 100 µM (inactive)	> 100 µM (inactive)	> 100 µM (inactive)	> 100 µM (inactive)	> 100 µM (inactive)	> 100 µM (inactive)	> 52.1 µM (inactive)	58.2 µM (inactive)	> 100 µM (inactive)	> 100 µM (inactive)	> 100 µM (inactive)	> 100 µM	> 100 µM (inactive)	> 100 µM (inactive)	> 100 µM (inactive)
